Data published in patent US20200298233A1, “MICROFLUIDIC PAPER CHIP FOR DETECTING MICRO-ORGANISM, METHOD FOR PREPARING THE SAME AND METHOD FOR DETECTING MICRO-ORGANISM USING THE SAME” (BIOMAX CO., LTD., priority 2017, published 2020).
Several values for one entry are separate records, joined by “and”; a condition that tells them apart may be missing. Equal entries are not always repeated.

Legend:
[1] = test system: Vibrio vulnificus; assay: Coloring reaction test of chromogenic reagents, 96 well plate; type: biochemical; conditions: chromogenic reagent terminal concentration 10 mM, 30 minutes at 37° C.
[2] = test system: 5 food risk microorganisms; assay: Bacterial lysis efficacy by optical density, overall statements; type: cell-based; conditions: table 7
[3] = test system: Staphylococcus aureus; assay: Coloring reaction test of chromogenic reagents, 96 well plate; type: biochemical; conditions: chromogenic reagent terminal concentration 10 mM, 30 minutes at 37° C.
[4] = test system: Salmonella spp.; assay: as above; type: biochemical; conditions: chromogenic reagent terminal concentration 10 mM, 30 minutes at 37° C.
[5] = test system: Vibrio vulnificus; assay: Bacterial lysis efficacy by measuring optical density (OD); conditions: initial O.D = 0.6143
[6] = test system: Staphylococcus aureus; assay: as above; type: cell-based; conditions: initial O.D = 1.1877
[7] = test system: Listeria monocytogenes; assay: as above; type: cell-based; conditions: initial O.D = 0.8336
[8] = test system: Salmonella spp.; assay: as above; conditions: initial O.D = 1.4448
[9] = test system: Esherichia coli O157; assay: as above; type: cell-based, Escherichia coli O157; conditions: initial O.D = 0.8139

Row | Compound | coloring reaction [1] | coloring reaction [3] | coloring reaction [4] | Optical density ([5]; detergent 0.1%) | Optical density ([5]; detergent 0.5%) | Optical density ([5]; detergent 1%) | Optical density ([5]; detergent 2%) | Optical density ([5]; detergent 3%) | Optical density ([5]; detergent 5%) | Optical density ([6]; detergent 0.1%) | Optical density ([6]; detergent 1%) | Optical density ([6]; detergent 2%) | Optical density ([6]; detergent 3%) | Optical density ([6]; detergent 5%) | Optical density ([7]; detergent 0.1%) | Optical density ([7]; detergent 0.5%) | Optical density ([7]; detergent 1%) | Optical density ([7]; detergent 2%) | Optical density ([7]; detergent 3%) | Optical density ([7]; detergent 5%) | also measured
1 | 5-Bromo-6-chloro-3-indolyl-beta-D-glucopyranoside [Magenta-beta-glucopyranoside] | unique coloring reaction |  |  |  |  |  |  |  |  |  |  |  |  |  |  |  |  |  |  |  | 
2 | 5-bromo-4-chloro-3-indoxyl-alpha-D-glucopyranoside [X-alpha-glucospyranoside] | unique coloring reaction |  |  |  |  |  |  |  |  |  |  |  |  |  |  |  |  |  |  |  | 
3 | CCCCCCCc1ccc(C(O)CC[N+](C)(C)CCCS(=O)(=O)[O-])cc1 (stereo not shown) [C7BzO, 3-[[3-(4-heptylphenyl)-3-hydroxypropyl]-dimethylazaniumyl]propane-1-sulfonate] |  |  |  |  |  |  |  |  |  |  |  |  |  |  |  |  |  |  |  |  | lysis efficacy on addition to 1% (v/v) SB3-14 [2]: increased the most
4 | CCCCCCCC(=O)Oc1c[nH]c2cc(Cl)c(Br)cc12 [Magenta-caprylate, 5-Bromo-6-chloro-3-indoxyl caprylate] |  | showed coloring reaction | higher intensity and speed |  |  |  |  |  |  |  |  |  |  |  |  |  |  |  |  |  | 
5 | CCCCCCCCCCCC[N+](C)(C)CCCS(=O)(=O)[O-] [SB3-10, 3-(Dodecyldimethylammonio)propane-1-sulfonate] |  |  |  | 0.3351 and 0.3199 and 0.3176 | 0.2124 and 0.2149 and 0.2105 | 0.1822 and 0.1758 and 0.1891 | 0.1627 and 0.1647 and 0.1624 | 0.0869 and 0.0865 and 0.0893 | 0.1477 and 0.1578 and 0.1677 | 0.9335 and 0.9313 and 0.9293 | 0.8872 and 0.8856 and 0.8847 | 0.8495 and 0.8478 and 0.8480 | 0.5582 and 0.5458 and 0.5385 | 0.8456 and 0.8446 and 0.8442 | 0.7689 and 0.8003 and 0.7683 | 0.7694 and 0.7802 and 0.7866 | 0.7935 and 0.7994 and 0.8055 | 0.7242 and 0.7341 and 0.7357 | 0.6917 and 0.7252 and 0.7227 | 0.8414 and 0.8448 and 0.8431 | Optical density ([6]; detergent 0.5%): 0.9517 and 0.9486 and 0.9454; Optical density ([8]; detergent 0.1%): 0.9125 and 0.9111 and 0.9138; Optical density ([8]; detergent 0.5%): 0.4241 and 0.4359; Optical density ([8]; detergent 1%): 0.4611 and 0.4597 and 0.4705; Optical density ([8]; detergent 2%): 0.4310 and 0.4345; Optical density ([8]; detergent 3%): 0.4184 and 0.4186 and 0.4199; Optical density ([8]; detergent 5%): 0.9464 and 0.9488 and 0.9479; Optical density ([9]; detergent 0.1%): 0.5979 and 0.5907 and 0.5816; Optical density ([9]; detergent 0.5%): 0.6803 and 0.6818 and 0.6832; Optical density ([9]; detergent 1%): 0.5228 and 0.5223 and 0.5253; Optical density ([9]; detergent 2%): 0.5845 and 0.5861 and 0.5779; Optical density ([9]; detergent 3%): 0.6355 and 0.6371 and 0.6311; Optical density ([9]; detergent 5%): 0.8160 and 0.8061 and 0.8134
6 | CCCCCCCCCCCCCCCC[N+](C)(C)CCCS(=O)(=O)[O-] [SB3-16, 3-(Hexadecyldimethylammonio)propane-1-sulfonate] |  |  |  | 0.1196 and 0.1210 and 0.1170 | 0.0680 and 0.0627 and 0.0656 | 0.0553 and 0.0506 and 0.0521 | 0.0399 and 0.0421 and 0.0383 | 0.0395 and 0.0407 and 0.0453 | 0.0324 and 0.0317 and 0.0323 | 1.0492 and 1.0472 and 1.0449 | 1.1763 and 1.1734 and 1.1719 | 1.0764 and 1.0741 and 1.0744 | 1.0675 and 1.0649 and 1.0654 | 1.0721 and 1.0700 and 1.0711 | 0.7770 and 0.8027 and 0.8073 | 0.7764 and 0.7530 and 0.7657 | 0.8133 and 0.8142 and 0.8238 | 0.7546 and 0.7725 and 0.7891 | 0.7213 and 0.7797 and 0.7969 | 0.6344 and 0.6340 and 0.6042 | Optical density ([8]; detergent 0.1%): 0.6487 and 0.6399 and 0.6538; Optical density ([8]; detergent 0.5%): 0.7598 and 0.7515 and 0.7651; Optical density ([8]; detergent 1%): 0.4932 and 0.4918 and 0.4892; Optical density ([8]; detergent 2%): 0.4688 and 0.4680 and 0.4676; Optical density ([8]; detergent 3%): 0.4487 and 0.4508 and 0.4516; Optical density ([8]; detergent 5%): 0.4594 and 0.4580 and 0.4632; Optical density ([9]; detergent 0.1%): 0.9950 and 1.0011 and 0.9956; Optical density ([9]; detergent 0.5%): 1.0314 and 1.0172 and 1.0085; Optical density ([9]; detergent 1%): 0.8049 and 0.7896 and 0.7856; Optical density ([9]; detergent 2%): 0.8432 and 0.8338 and 0.8284; Optical density ([9]; detergent 3%): 0.8710 and 0.8653 and 0.8610; Optical density ([9]; detergent 5%): 0.9536 and 0.9258 and 0.9244
7 | OC[C@H]1O[C@H](Oc2c[nH]c3cc(Cl)ccc23)[C@H](O)[C@@H](O)[C@@H]1O [Salmon-alpha-glucospyranoside, 6-Chloro-3-indoxyl-alpha-D-glucopyranoside] | unique coloring reaction | unique coloring reaction | unique and strong coloring reaction |  |  |  |  |  |  |  |  |  |  |  |  |  |  |  |  |  | 
8 | O=P([O-])([O-])Oc1c[nH]c2ccc(Br)c(Cl)c12.[Na+].[Na+] [X-phosphate, 5-Bromo-4-chloro-3-indoxyl phosphate, disodium salt] |  | unique coloring reaction | unique and strong coloring reaction |  |  |  |  |  |  |  |  |  |  |  |  |  |  |  |  |  | 
9 | Triton X-100 |  |  |  | 0.3916 and 0.3935 and 0.3923 | 0.3421 and 0.3417 and 0.3437 | 0.2844 and 0.2794 and 0.2801 | 0.3044 and 0.3089 and 0.3046 | 0.2947 and 0.2950 and 0.2966 | 0.2499 and 0.2478 and 0.2431 | 1.1248 and 1.1255 and 1.1291 | 1.2024 and 1.2028 and 1.2027 | 1.2247 and 1.2245 and 1.2231 | 1.1855 and 1.1810 and 1.1826 | 1.2147 and 1.2108 and 1.2034 | 0.7013 and 0.7077 and 0.7059 | 0.7398 and 0.7403 and 0.7414 | 0.6622 and 0.6765 and 0.6766 | 0.7014 and 0.7164 and 0.7099 | 0.6407 and 0.6609 and 0.6608 | 0.6213 and 0.6340 and 0.6310 | Optical density ([8]; detergent 0.1%): 1.0968 and 1.0927 and 1.0890; Optical density ([8]; detergent 0.5%): 1.0965 and 1.0899 and 1.1089; Optical density ([8]; detergent 1%): 0.8827 and 0.8879 and 0.8963; Optical density ([8]; detergent 2%): 0.9457 and 0.9452 and 0.9464; Optical density ([8]; detergent 3%): 0.8287 and 0.8303 and 0.8231; Optical density ([8]; detergent 5%): 0.8258 and 0.8240 and 0.8249; Optical density ([9]; detergent 0.1%): 0.8888 and 0.8930 and 0.8848; Optical density ([9]; detergent 1%): 0.9722 and 0.9715 and 0.9720; Optical density ([9]; detergent 2%): 0.9793 and 0.9819 and 0.9767; Optical density ([9]; detergent 3%): 0.9052 and 0.9049 and 0.9035; Optical density ([9]; detergent 5%): 0.9238 and 0.9183 and 0.9254
